Data as given in ChEMBL document CHEMBL4699584, “Bioassay-Directed Isolation of Antibacterial Metabolites from an Arthropod-Derived Penicillium chrysogenum” (2020).

How the values were obtained:
Type in all cases: functional
Escherichia coli = test: Antibacterial activity against ESBL producing Escherichia coli assessed as reduction in microbial growth by broth microdilution method
Staphylococcus aureus = test: Antibacterial activity against methicillin-resistant Staphylococcus aureus assessed as reduction in microbial growth by broth microdilution method
Enterococcus faecalis = test: Antibacterial activity against Enterococcus faecalis assessed as reduction in microbial growth by broth microdilution method

| Compound | MIC (Escherichia coli) | MIC (Staphylococcus aureus) | MIC (Enterococcus faecalis) |
| --- | --- | --- | --- |
| C[C@H]1[C@@H]2O[C@@H]2C(=O)[C@]2(C)CC[C@H]3[C@H]4[C@](C)(CC[C@]4(C)C(=O)O)C[C@]132 | 32 µg/mL | 4 µg/mL | 32 µg/mL |
| C[C@H]1C=CC(=O)[C@]2(C)CC[C@H]3[C@@H]4C(CO)(CO)CC[C@]4(C)C[C@]132 | 32 µg/mL | 2 µg/mL | 32 µg/mL |
